PubChem BioAssay (NCI)
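Compound exposure: 48 hours, 5 concentrations, 96-well plates. GI50 marks 50% less growth. TGI: concentration producing complete growth inhibition.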

Legend:
Experiment in all cases: growth of human tumour cells (NCI), 48 h
M14 melanoma = tested on: M14 melanoma
SNB-19 CNS = tested on: SNB-19 CNS
SF-268 CNS = tested on: SF-268 CNS
UACC-257 melanoma = tested on: UACC-257 melanoma
SK-OV-3 ovarian = tested on: SK-OV-3 ovarian
COLO 205 colon = tested on: COLO 205 colon
HOP-92 NSCLC = tested on: HOP-92 NSCLC
T-47D breast = tested on: T-47D breast
ACHN renal = tested on: ACHN renal
HOP-62 NSCLC = tested on: HOP-62 NSCLC
HCC-2998 colon = tested on: HCC-2998 colon
LOX IMVI melanoma = tested on: LOX IMVI melanoma
HCT-15 colon = tested on: HCT-15 colon
MOLT-4 leukemia = tested on: MOLT-4 leukemia
SN12C renal = tested on: SN12C renal
SK-MEL-5 melanoma = tested on: SK-MEL-5 melanoma
MDA-MB-231 breast = tested on: MDA-MB-231 breast
HL-60(TB) leukemia = tested on: HL-60(TB) leukemia
PC-3 prostate = tested on: PC-3 prostate
SR leukemia = tested on: SR leukemia
OVCAR-4 ovarian = tested on: OVCAR-4 ovarian
UO-31 renal = tested on: UO-31 renal
HT29 colon = tested on: HT29 colon
BT-549 breast = tested on: BT-549 breast
RPMI-8226 leukemia = tested on: RPMI-8226 leukemia
MDA-MB-435 = tested on: MDA-MB-435
UACC-62 melanoma = tested on: UACC-62 melanoma
NCI-H23 lung = tested on: NCI-H23 lung
HS 578T breast = tested on: HS 578T breast
DU-145 prostate = tested on: DU-145 prostate
786-0 renal = tested on: 786-0 renal
A498 renal = tested on: A498 renal
K-562 leukemia = tested on: K-562 leukemia
SK-MEL-2 melanoma = tested on: SK-MEL-2 melanoma
NCI-H522 lung = tested on: NCI-H522 lung
SF-295 CNS = tested on: SF-295 CNS
OVCAR-8 ovarian = tested on: OVCAR-8 ovarian
HCT-116 colon = tested on: HCT-116 colon
KM12 colon = tested on: KM12 colon
IGROV1 ovarian = tested on: IGROV1 ovarian
RXF 393 renal = tested on: RXF 393 renal
MALME-3M melanoma = tested on: MALME-3M melanoma
SK-MEL-28 melanoma = tested on: SK-MEL-28 melanoma
OVCAR-3 ovarian = tested on: OVCAR-3 ovarian
SNB-75 CNS = tested on: SNB-75 CNS
SF-539 CNS = tested on: SF-539 CNS
NCI/ADR-RES ovarian = tested on: NCI/ADR-RES ovarian
A549 NSCLC = tested on: A549 NSCLC
MCF7 breast = tested on: MCF7 breast
OVCAR-5 ovarian = tested on: OVCAR-5 ovarian
CCRF-CEM leukemia = tested on: CCRF-CEM leukemia
NCI-H226 lung = tested on: NCI-H226 lung
CAKI-1 renal = tested on: CAKI-1 renal
SW-620 colon = tested on: SW-620 colon
NCI-H460 lung = tested on: NCI-H460 lung
U251 CNS = tested on: U251 CNS

O=C1Nc2ccccc2/C1=C/C(=N/c1nnc(-c2ccccc2)s1)c1ccccc1
GI50 (M14 melanoma): 3.87 µM | TGI (M14 melanoma): 14.3 µM | GI50 (SNB-19 CNS): 12.3 µM | TGI (SNB-19 CNS): 25 µM | GI50 (SF-268 CNS): 4.3 µM | TGI (SF-268 CNS): 16.1 µM | GI50 (UACC-257 melanoma): 3.81 µM | TGI (UACC-257 melanoma): 10.6 µM | GI50 (SK-OV-3 ovarian): 6.62 µM | TGI (SK-OV-3 ovarian): 19.1 µM | GI50 (COLO 205 colon): 1.68 µM | TGI (COLO 205 colon): 3.22 µM | GI50 (HOP-92 NSCLC): 0.987 µM | TGI (HOP-92 NSCLC): 2.93 µM | GI50 (T-47D breast): 2.45 µM | TGI (T-47D breast): 10.1 µM | GI50 (ACHN renal): 1.56 µM | TGI (ACHN renal): 3 µM | GI50 (HOP-62 NSCLC): 6.05 µM | TGI (HOP-62 NSCLC): 18 µM | GI50 (HCC-2998 colon): 8.58 µM | TGI (HCC-2998 colon): 21.5 µM | GI50 (LOX IMVI melanoma): 1.61 µM | TGI (LOX IMVI melanoma): 3.21 µM | GI50 (HCT-15 colon): 1.63 µM | TGI (HCT-15 colon): 4.01 µM | GI50 (MOLT-4 leukemia): 2.23 µM | TGI (MOLT-4 leukemia): 6.54 µM | GI50 (SN12C renal): 2.07 µM | TGI (SN12C renal): 5.69 µM | GI50 (SK-MEL-5 melanoma): 6.57 µM | TGI (SK-MEL-5 melanoma): 17.9 µM | GI50 (MDA-MB-231 breast): 1.92 µM | TGI (MDA-MB-231 breast): 4.95 µM | GI50 (HL-60(TB) leukemia): 1.82 µM | TGI (HL-60(TB) leukemia): 5.33 µM | GI50 (PC-3 prostate): 2 µM | TGI (PC-3 prostate): 5.52 µM | GI50 (SR leukemia): 0.957 µM | TGI (SR leukemia): 6.76 µM | GI50 (OVCAR-4 ovarian): 2.63 µM | TGI (OVCAR-4 ovarian): 12.2 µM | GI50 (UO-31 renal): 1.45 µM | TGI (UO-31 renal): 3.31 µM | GI50 (HT29 colon): 2.1 µM | TGI (HT29 colon): 5.37 µM | GI50 (BT-549 breast): 1.91 µM | TGI (BT-549 breast): 3.96 µM | GI50 (RPMI-8226 leukemia): 2.14 µM | TGI (RPMI-8226 leukemia): 5.21 µM | GI50 (MDA-MB-435): 2.96 µM | TGI (MDA-MB-435): 9.32 µM | GI50 (UACC-62 melanoma): 1.72 µM | TGI (UACC-62 melanoma): 3.74 µM | GI50 (NCI-H23 lung): 2.88 µM | TGI (NCI-H23 lung): 11 µM | GI50 (HS 578T breast): 2.71 µM | TGI (HS 578T breast): 11.8 µM | GI50 (DU-145 prostate): 2.7 µM | TGI (DU-145 prostate): 7.77 µM | GI50 (786-0 renal): 1.79 µM | TGI (786-0 renal): 3.55 µM | GI50 (A498 renal): 6.78 µM | TGI (A498 renal): 21 µM | GI50 (K-562 leukemia): 1.69 µM | TGI (K-562 leukemia): 11 µM | GI50 (SK-MEL-2 melanoma): 2.55 µM | TGI (SK-MEL-2 melanoma): 7.07 µM | GI50 (NCI-H522 lung): 0.449 µM | TGI (NCI-H522 lung): 1.06 µM | GI50 (SF-295 CNS): 17.1 µM | TGI (SF-295 CNS): 32.7 µM | GI50 (OVCAR-8 ovarian): 2.77 µM | TGI (OVCAR-8 ovarian): 9.35 µM | GI50 (HCT-116 colon): 1.34 µM | TGI (HCT-116 colon): 2.92 µM | GI50 (KM12 colon): 5.5 µM | TGI (KM12 colon): 17.9 µM | GI50 (IGROV1 ovarian): 2.13 µM | TGI (IGROV1 ovarian): 5.94 µM | GI50 (RXF 393 renal): 1.51 µM | TGI (RXF 393 renal): 3.1 µM | GI50 (MALME-3M melanoma): 2.17 µM | TGI (MALME-3M melanoma): 6.67 µM | GI50 (SK-MEL-28 melanoma): 2.68 µM | TGI (SK-MEL-28 melanoma): 6.93 µM | GI50 (OVCAR-3 ovarian): 1.38 µM | TGI (OVCAR-3 ovarian): 2.8 µM | GI50 (SNB-75 CNS): 3.7 µM | TGI (SNB-75 CNS): 16.9 µM | GI50 (SF-539 CNS): 1.99 µM | TGI (SF-539 CNS): 4.64 µM | GI50 (NCI/ADR-RES ovarian): 3.1 µM | TGI (NCI/ADR-RES ovarian): 10.3 µM | GI50 (A549 NSCLC): 8.62 µM | TGI (A549 NSCLC): 23.6 µM | GI50 (MCF7 breast): 2.28 µM | TGI (MCF7 breast): 11.3 µM | GI50 (OVCAR-5 ovarian): 2.09 µM | TGI (OVCAR-5 ovarian): 6.63 µM | GI50 (CCRF-CEM leukemia): 1.47 µM | TGI (CCRF-CEM leukemia): 4.72 µM | GI50 (NCI-H226 lung): 2.5 µM | TGI (NCI-H226 lung): 8.28 µM | GI50 (CAKI-1 renal): 2.58 µM | TGI (CAKI-1 renal): 10.3 µM | GI50 (SW-620 colon): 1.2 µM | TGI (SW-620 colon): 2.74 µM | GI50 (NCI-H460 lung): 7.04 µM | TGI (NCI-H460 lung): 21.9 µM | GI50 (U251 CNS): 4.91 µM | TGI (U251 CNS): 17.7 µM
